{"source": "patent US9908890B2", "about": "“Selective inhibitors of constitutive androstane receptor” (ST. JUDE CHILDREN'S RESEARCH HOSPITAL, priority 2014, dated 2018)", "key": {"[1]": {"tested_on": "FLAG-hCAR1 nuclear localization", "assay": "Immunofluorescence of FLAG-hCAR1 in U2OS cells", "format": "cell-based, human", "details": "5 μM CINPA1, 2 h", "experimental": "Briefly, CAR binding to PGC-1α coactivator peptide was determined by using the LanthaScreen® fluorescent coregulator peptide assay. Fluorescein-labeled PGC-1α peptide (125 nM) was complexed with GST-hCAR-LBD (5 nM) and Tb-anti-GST antibody (5 nM) as described in Experimental Procedures. […] Lysates were prepared, and CAR expression was analyzed by Western blot using CAR monoclonal antibody (Clone N4111, R&D Systems). β-actin was used as a loading control. […] Briefly, U2OS cells were transfected to express FLAG-hCAR1. […] Secondary antibody labeled with Alexa Fluor® 555 dye was used to visualize FLAG-tagged hCAR1 (shown in the second column) using a NikonC 1Si microscope. Nuclei were stained with DAPI (shown in the first column).\nU2OS cells were transiently transfected to express FLAG-hCAR1. […] Cells were fixed by using a 4% paraformaldehyde solution (Sigma), permeabilized by using 0.5% Triton X-100 in PBS, and incubated with FLAG-antibody overnight at 4° C. Cells were washed three times with PBS following each step. Secondary antibody labeled with Alexa Fluor® 555 dye was used to visualize FLAG-tagged hCAR1 (red) using a NikonC 1Si microscope. Nuclei were stained with DAPI (blue)."}, "[2]": {"molecular_target": "T1, hPXR (Homo sapiens, UniProt O75469)", "T1 construct": "expressed in transfected cells", "T1 sequence (O75469 1-434)": "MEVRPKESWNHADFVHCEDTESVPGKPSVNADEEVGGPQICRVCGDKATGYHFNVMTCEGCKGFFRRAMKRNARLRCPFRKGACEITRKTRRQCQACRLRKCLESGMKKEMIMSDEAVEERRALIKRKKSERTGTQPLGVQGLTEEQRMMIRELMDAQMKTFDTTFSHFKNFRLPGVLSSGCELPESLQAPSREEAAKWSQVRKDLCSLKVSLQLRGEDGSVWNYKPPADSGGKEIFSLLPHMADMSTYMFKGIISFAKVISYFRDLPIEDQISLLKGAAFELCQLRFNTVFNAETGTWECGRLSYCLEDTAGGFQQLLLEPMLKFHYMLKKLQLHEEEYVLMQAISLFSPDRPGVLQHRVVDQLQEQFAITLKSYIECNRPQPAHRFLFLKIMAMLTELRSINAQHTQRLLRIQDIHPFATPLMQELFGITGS", "assay": "PXR luciferase assay (HepG2-PXR Clone 1, CYP3A4-luciferase reporter)", "format": "cell-based", "experimental": "Luciferase activity was measured 24 h after treatment by using SteadyLite™ reagent. […] GraphPad Prism was used to fit the data into a dose-response equation to derive IC50 values. […] The percentage of PXR activation was calculated by setting that of DMSO-treated cells (negative control) to 0%, and that of 5 μM rifampicin-treated cells (positive control) to 100%. HepG2 cells stably expressing hPXR and CYP3A4-luciferase reporter (PXR Clone 1) were treated with indicated compounds for 24 h. Luciferase activity was measured 24 h after treatment by using SteadyLite reagent. The percentage of PXR activation was calculated by setting that of DMSO-treated cells (negative control) to 0%, and that of 5 μM rifampicin-treated cells (positive control) to 100%.\nBriefly, HepG2 cells were transiently transfected with plasmids expressing hCAR1, CYP3A4-luc reporter and control plasmid pTK-RL. […] Dual luciferase activity was measured 24 h after treatment using Dual-Glo® luciferase reagent. Renilla luciferase was used to normalize firefly luciferase values and % Luciferase activity was calculated by setting DMSO to 100%. p<0.001, when comparing DMSO to all treatments except 5 μM rifampicin. […] Briefly, HepG2-PXR Clone 1 cells were treated with CINPA1 in a dose-responsive format (40 μM to 2 nM, 1-to-2 dilutions for 10 concentrations) in the presence or absence of 5 μM rifampicin (Rif) for 24 h before luciferase assay using SteadyLite™. % PXR activity was calculated by setting DMSO (negative. control) treated cells to 0% and 5 μM rifampicin (positive. control) treated cells to 100%. GraphPad Prism was used to fit the data into a dose-response stimulation equation to derive IC50 values. […] Briefly, U2OS cells were transiently transfected with plasmids expressing hCAR1, CYP2B6-luc reporter and control plasmid pTK-RL. […] Dual luciferase activity was measured 24 h after treatment. Renilla luciferase was used to normalize firefly luciferase values and % Luciferase activity was calculated by setting DMSO to 100%. *, p<0.0001 comparing CITCO+CINPA1 to CITCO treated cells. […]"}, "[3]": {"tested_on": "HepG2, LS174T, and HEK293T cells", "assay": "Cell viability (CellTiter-Glo)"}}, "data": [{"smiles": "CCOC(=O)Nc1ccc2c(c1)N(C(=O)CN(CC)CC)c1ccccc1CC2", "note": "[CINPA1]", "values": [{"measurement": "nuclear localization of CAR", "setting": "[1]", "value": "does not alter the nuclear localization of CAR"}, {"measurement": "inhibition of PXR-mediated gene expression", "setting": "[2]; 18 μM CINPA1 with 5 μM rifampicin, 24 h", "value": "weakly inhibited PXR-mediated gene expression"}, {"measurement": "agonistic effect on PXR-regulated gene expression", "setting": "[2]; 40 μM", "value": "did not exhibit any agonistic effect"}, {"measurement": "IC50", "setting": "[2]; in the presence of 5 μM rifampicin, read-out: IC50, antagonist of PXR", "value": 6.6, "unit": "µM"}, {"measurement": "cytotoxicity at higher concentrations", "setting": "[3]; 30 μM and 60 μM", "value": "cytotoxic to varying degrees"}, {"measurement": "general cytotoxicity", "setting": "[3]; concentration range effective in inhibiting CAR and PXR, 4-day assay", "value": "does not exhibit general cytotoxicity"}]}]}
